Values quoted from earlier work in US7989624B2, “Aryl spirolactam CGRP receptor antagonists” (Merck Sharp & Dohme Corp., priority 2004, dated 2011).
Where no end group is shown, it is not given here.

Key:
[1] = system: marmoset; conditions: electrical stimulation of the trigeminal ganglion
[2] = system: migraine; conditions: clinical studies, intravenously administered
[3] = system: rats; conditions: electrical stimulation of the dura mater, prior administration
[4] = system: rat; conditions: trigeminal ganglion stimulation

## NCCCC[C@H](NC(=O)[C@@H](Cc1cc(Br)c(O)c(Br)c1)NC(=O)N1CCC(N2Cc3ccccc3NC2=O)CC1)C(=O)N1CCN(c2ccncc2)CC1 [BIBN4096BS]
[1]
  increase in facial blood flow: could be blocked
[2]
  acute treatment for migraine: safe and effective

## CGRP(8-37): a fragment of CGRP that lacks seven N-terminal amino acid residues; a peptide CGRP antagonist (VTHRLAGLLSRSGGVVKNNFVPTNVGSKAF; ends and bridges not checked; UniProt P06881 90-119, looked up, fragment)
[3]
  increase of the diameter of the middle meningeal artery: blocked
[4]
  increased facial blood flow: inhibited
